The values that follow come from PubChem BioAssay (NCI).

“And” between values parts separate entries of the source, which are not always exact repeats. Equal values may be shown once.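 Briefly, cells in 96-well plates were exposed to five compound concentrations for 48 h, and endpoints were estimated by linear interpolation. GI50 is the concentration that inhibits growth by half. TGI: concentration producing complete growth inhibition.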 Some results are limits rather than exact numbers.

Holding throughout (experiment): NCI tumour cell line growth inhibition, 48 h
The test system of experiment [1] is ACHN renal.
Experiment [2] concerns DU-145 prostate.
Experiment [3] has as its system HCC-2998 colon.
The subject of experiment [4] is M14 melanoma.
Experiment [5] relates to MCF7 breast.
Experiment [6] deals with NCI-H522 lung.
For experiment [7], the system named is SR leukemia.
Experiment [8] has as its system T-47D breast.
The subject of experiment [9] is TK-10 renal.
The subject of experiment [10] is DLD-1 colon.
Experiment [11] has as its system DMS 273 small cell lung.
Experiment [12] has as its system HOP-18 NSCLC.
Experiment [13] deals with XF 498 CNS.
The test system of experiment [14] is SNB-78 CNS.

`CN(C)c1ccc(/C=C2/SC(=S)NC2=O)cc1`: the TGI in [1], in experiment [2], in experiment [3], in [4], in experiment [5] and in experiment [6] was more than 100 µM each time. In addition, the TGI was more than 100 µM in experiment [7], more than 100 µM in [8] and 53 µM in experiment [9].
As to `CC1=C(C)C(=O)O[C@@H]([C@](C)(O)[C@]2(O)CC[C@@]3(O)[C@@H]4C[C@H]5O[C@]56[C@@H](O)C=CC(=O)[C@]6(C)[C@H]4CC[C@]23C)C1`, the GI50 was 0.666 µM and 0.162 µM in [10]; 1.5 µM and 0.252 µM in [11]; 0.164 µM in [5]; 0.0804 µM and 0.0721 µM in [6]; 0.082 µM in experiment [13]. The TGI is 3.36 µM and 3.89 µM in experiment [10]; 5.32 µM and 3.13 µM in [11]; 5.76 µM in experiment [3]; 2.44 µM in experiment [12]; 2.94 µM and 3.41 µM in experiment [5]; 2.16 µM and 1 µM in [6]. Moreover, the TGI in experiment [13] was 0.819 µM and 0.8 µM.
As for `CC(C)(C)NCc1cc(Nc2ccnc3cc(Cl)ccc23)cc(-c2ccc(Cl)cc2)c1O`, the TGI is 15 µM in experiment [1]; 15 µM in experiment [2]; 3.82 µM in experiment [3]; 4 µM in experiment [4]; 3.13 µM in experiment [5]; 7.51 µM in experiment [6]. For the same molecule, the TGI came out at 4.97 µM in experiment [7], 13.3 µM in experiment [8] and 7.76 µM in [9].
For the molecule `O=c1[nH]c(Nc2ccc(F)c(Cl)c2)nc2nc[nH]c12`, the TGI in experiment [1], in [2], in experiment [3], in experiment [4], in [5] and in experiment [6] was more than 100 µM in each case. The TGI in [8] and in [9] was more than 100 µM throughout.
As to `CC1C(=O)OC2CC[N+]3(CC(=O)c4ccc(Br)cc4)CC=C(COC(=O)C(C)(O)C1(C)O)C23` (stereo unspecified), the TGI in [10], in experiment [11], in experiment [3], in experiment [12], in [5] and in [6] was more than 375 µM in each case. For the same molecule, the TGI in experiment [14] is more than 174 µM; in experiment [13], more than 375 µM.
Turning to `COCO[C@@H]1C[C@H]2C(O)Nc3ccccc3C(=O)N2C1` (stereo partly specified), the TGI in experiment [1], in [2], in experiment [3], in [4], in [5] and in experiment [7] was more than 100 µM in each case. The TGI in [8] and in experiment [9] was more than 100 µM throughout.
Turning to `COC(=O)CCC(=O)CC(=O)C1=NS(=O)(=O)c2nc(S(N)(=O)=O)c(Cl)cc2N1`, the TGI in [1], in experiment [10], in experiment [11], in experiment [3], in [12] and in [4] was more than 100 µM each time. Moreover, the TGI in experiment [6], in experiment [7], in [9] and in [13] was more than 100 µM each time.
`O=C(O)CCCCCCC[C@@H]1S[C@H]1CCCCCCO`: the TGI in experiment [10], in experiment [11], in experiment [3], in [12], in [5] and in experiment [6] was more than 100 µM in each case. The TGI in experiment [14] and in [13] was more than 100 µM in each case.
For `C[n+]1c2ccccc2c(CNc2ccc(S(=O)(=O)N=C(N)N)cc2)c2ccccc21`, the TGI is more than 100 µM in experiment [1]; 65.5 µM in experiment [10]; 24.2 µM in experiment [11]; 39.2 µM in experiment [3]; 28 µM in experiment [4]; 32.3 µM in experiment [6]. The TGI in [14] was 78.1 µM; in experiment [9], more than 100 µM.
For the molecule `N#C[S-].[Nd+3].c1cnc2c(c1)ccc1cccnc12.c1cnc2c(c1)ccc1cccnc12.c1cnc2c(c1)ccc1cccnc12`, the TGI was 13 µM in experiment [1]; 20 µM in [3]; 7.53 µM in experiment [12]; 6.17 µM in [4]; 18.1 µM in experiment [6]; more than 100 µM in [7]. Also, the TGI in experiment [9] came out at 22 µM; in experiment [13], 9.61 µM. In addition, the GI50 in [12] was 0.787 µM; in [13], 4 µM.
With `CCSc1nc(N)c2c(-c3ccc(OC)c(OC)c3)c3c(nc2n1)CCCC3`, the TGI in experiment [1], in experiment [2], in [4], in [5], in experiment [7] and in [8] was more than 100 µM in each case. The same molecule returned a TGI in [9] of more than 100 µM.
In the case of `Cc1cc(NC(=S)Nc2ccccc2)c(NC(=S)Nc2ccccc2)cc1C`, the TGI in experiment [10] was more than 100 µM; in experiment [11], more than 100 µM; in experiment [3], more than 57.6 µM; in experiment [12], more than 100 µM; in experiment [5], 98.6 µM; in [6], 32.4 µM. In addition, the TGI in experiment [13] amounted to 84 µM.
With `CC(C)=CC1C(COC(=O)c2cc3c(cc2Cl)OCO3)C1(C)C` (stereo unspecified), the TGI in experiment [1] was more than 100 µM; in experiment [2], more than 100 µM; in experiment [4], more than 100 µM; in experiment [6] it was 46.4 µM; in experiment [7], 78.3 µM; in [8], more than 100 µM. In experiment [9], the TGI was more than 100 µM.
